Data as given in patent US20090263416A1, “REDUCTION OF ANTIBIOTIC RESISTANCE IN BACTERIA” (priority 2006, published 2009).

Key:
Type in all cases: cell-based
E. coli of swine origin = assay: Curing of antibiotic resistance (replica plating); conditions: for curing for amoxicillin and clavulanic acid / curing for ampicillin / curing for chloramphenicol: isolates treated with EB or IDU
Description: (§1) Plasmid curing of antibiotic resistant bacteria was measured as described by Lakshmi and Thomas (1989) and NCCLS (2000). Briefly, aliquots (final inoculum concentration approximately 1×10^5 CFU/ml) of Salmonella isolates, E. coli isolates, and commercial isolates of E. coli XL1-blue and E. coli RK2 were added to tubes containing 1 ml aliquots of increasing concentrations of P-YCWP or YCWP (0, 0.01, 0.1, 0.3, 0.5, 1.0, 2.0, 3.0% w/v). A control culture was established by adding bacterial isolates as described above to aliquots of increasing concentrations of mannose. Known curing agents [ethidium bromide and iododeoxyuridine (IDU)] were used as positive controls, and to provide a percent curing activity. Tubes were incubated at 35° C. for 24 hr.
(§2) Following incubation, bacterial aliquots were plated on MacConkey agar plates (master plates). Antibiotic resistance after treatment was evaluated by replica plating on MacConkey agar containing predetermined concentrations of antimicrobial agents. Minimum curing concentration (MCC) was defined as the minimum concentration of compound able to “cure” bacteria, that is, remove antibiotic resistance, within a 24 hr period. A sample was considered to contain bacteria resistant to an antibiotic when greater than 1% of a sample plated on a master plate of MacConkey agar grew on an antibiotic-containing replica plate.

Salmonella spp. (13) = assay: Agglutination; conditions: sugar 100 mM
Description: (§3) E. coli and Salmonella isolates were evaluated for ability to agglutinate P-YCWP and YCWP by growing isolates into TIF slants (10 g peptone, 5 g NaCl, 5 g yeast extract and 15 g bacto agar per liter) for 24 hr. Sugar solutions (100 mM) of glucose, mannose, or fructose were prepared in 100 mM phosphate-buffered solution (PBS) at pH 7.2. Yeast cell wall preparations were suspended (1 g YCWP) into 1 liter of PBS. The grown isolates were resuspended in PBS and mixed with 0.1 ml PBS as control or 0.1 ml sugar solution (glucose, mannose, or fructose) to occupy bacterial attachment sites. For adherence tests, 10 μl of P-YCWP or YCWP suspension was placed on a series of microscope slides. The negative control was […] of PBS mixed with YCWP suspension. Bacterial suspension (10 μl) as described above was added, mixed using an orbital shaker, and observed under light microscope (100-1000× magnification). The ability of any of the sugars to inhibit or weaken agglutination was considered evidence that that sugar played a role in agglutination/attachment for that bacteria.

S. pullorum (1) = assay: Agglutination; conditions: sugar 100 mM
Description: as §3

E. coli (30) = assay: Agglutination; conditions: sugar 100 mM
Description: as §3

S. Cholerasuis (2) = assay: Agglutination; conditions: sugar 100 mM
Description: as §3

[1] = system: S. enteritidis (ATCC 13076); assay: Curing / plasmid loss; conditions: streptomycin-resistant; 24 hr exposure, replica plating
Description: as §1
(§4) Following incubation, bacterial aliquots were plated on MacConkey agar plates (master plates). Antibiotic resistance after treatment was evaluated by replica plating on MacConkey agar containing predetermined concentrations of antimicrobial agents. Minimum curing concentration (MCC) was defined as the minimum concentration of compound able to “cure” bacteria, that is, remove antibiotic resistance, within a 24 hr period. […]
(§5) Plasmids were evaluated by microbial lysis and extraction of DNA (Mini-prep System, Bio-Rad Laboratories, Hercules, Calif.), followed by electrophoretic separation on 1% agarose gel (Bio-Rad). […]

[2] = system: E. coli ATCC 33766, plasmid pRK248clts; assay: Curing, broad range plasmid strain; conditions: tetracycline-resistant determinant; data not shown
Description: as §1, §2

E. coli XL1-blue = assay: Curing / plasmid loss, narrow range plasmid strain; conditions: FIG. 4
Description: as §1, §4, §5

CC[n+]1c(-c2ccccc2)c2cc(N)ccc2c2ccc(N)cc21 [EB, ethidium bromide] was tested. Which “curing for amoxicillin and clavulanic acid” value (E. coli of swine origin) did it give?
The value was 100%.

And the curing for ampicillin (E. coli of swine origin)?
Its curing for ampicillin is 5%.

What about the curing for chloramphenicol (E. coli of swine origin) of the same molecule?
Its curing for chloramphenicol is 100%.

What does the source list for O=C(CO)[C@@H](O)[C@H](O)[C@H](O)CO [Fructcose, fructose]?
agglutination with YCWP or P-YCWP in presence of sugar (Salmonella spp. (13)): Negative (−); agglutination with YCWP or P-YCWP in presence of sugar (S. pullorum (1)): Negative (−); agglutination with YCWP or P-YCWP in presence of sugar (E. coli (30)): Negative (−); agglutination with YCWP or P-YCWP in presence of sugar (S. Cholerasuis (2)): Negative (−)

Which results are given for O=c1[nH]c(=O)n([C@H]2C[C@H](O)[C@@H](CO)O2)cc1I [IDU, iododeoxyuridine]?
curing [1]: Neither EB nor IDU showed any curing capacity; curing of the organism carrying the broad range plasmid [2]: Neither yeast cell wall preparations nor traditional curing agents (EB, IDU) cured the organism; curing for neomycin (E. coli of swine origin; EB or IDU treatment): no curing; curing for tetracycline (E. coli of swine origin; EB or IDU treatment): no curing; curing for amoxicillin and clavulanic acid (E. coli of swine origin): 100%; curing for ampicillin (E. coli of swine origin): 5%; curing for chloramphenicol (E. coli of swine origin): 100%; curing (E. coli XL1-blue): curing was seen
